Data: patent publication US9061994B1, “Materials and methods useful to induce vacuolization, cell death, or a combination thereof” (The University of Toledo, priority 2011, dated 2015)
“Also recorded” adds a separate entry of the source. Read-outs that look alike come from different tables or passages of the source.

Experiments:
[1] = tested on: U251 glioblastoma cells; assay: MTT cell viability assay; assay type: cell-based, human; settings: for IC50: Homo sapiens, U-251, 48 h
[2] = tested on: temozolomide-resistant U251 cells (U251-TR); assay: MTT cell viability assay, temozolomide-resistant cells; assay type: cell-based, human
[3] = tested on: LN229, U2OS, MCF7, SW480 and PANC-1 cancer cell lines; assay: MTT cell viability assay, other cancer cell lines; assay type: cell-based; settings: Homo sapiens; 10 μM MIPP; all of the cancer cell lines (FIG. 27); read-out: reduction of relative cell viability
[4] = MTT cell viability assay, mammary epithelial cells; assay type: cell-based; settings: human, MCF-10A mammary epithelial cells, 10 μM MIPP (FIG. 27), read-out: reduction in cell viability
[5] = MTT cell viability assay, normal fibroblasts; assay type: cell-based; settings: human, normal skin fibroblasts, 10 μM MIPP (FIG. 27), read-out: reduction in cell viability
[6] = tested on: U251 glioblastoma cells; assay: Cell morphology / vacuolization by phase-contrast microscopy; assay type: cell-based, human
[7] = tested on: U251 glioblastoma cells; assay: Colony-forming assay; assay type: cell-based, human; settings: cells treated for 2 days (FIGS. 15, 40)
[8] = tested on: U251-TR cells; assay: Colony-forming assay, temozolomide-resistant cells; assay type: cell-based, human; settings: 10 μM MIPP, 2 days (FIG. 21)
Description: (§1) For colony-forming assays, cells were plated in 100 mm dishes at 2,500 (U251 and U251-TR) or 1,500 (all other cell lines) cells per dish. Beginning on the day after plating, the cells were exposed to 10 μM MIPP for 2 days, with the medium and drug replenished after 1 day. The cells were fed fresh medium without drug every 2 to 3 d for a period of 10-21 days. To visualize the colonies, the dishes were washed with PBS, fixed for 10 min with ice-cold 100% methanol, and stained with 1% crystal violet in 35% methanol. After 2-3 washes with water, colonies containing at least 50 cells were counted using a dissecting microscope or a Protocol 2 colony counter.

[9] = tested on: LN229, U2OS, MCF7, SW480 and PANC-1 cancer cell lines; assay: Colony-forming assay, other cancer cell lines; assay type: cell-based, human; settings: exposure for 2 days (FIG. 28)
Description: as §1
Also disclosed herein is an analysis of the effects of the compound in several other cell lines. These include an additional glioma cell line (LN229), osteosarcoma cells (U2OS), and breast (MCF7), colon (SW480) and pancreatic (PANC-1) carcinoma cells. Similar to the results with U251 cells, 10 μM MIPP induced dramatic cytoplasmic vacuolization in all of the cell lines, as shown in FIG. 26.

[10] = tested on: active Rac1; assay: Pull-down assay for activated Rac1; assay type: cell-based, human; settings: U251; 10 μM MIPP; 4 h or 24 h
Description: (§2) Assays for activated Rac1 and Arf6 were performed using EZ-Detect Rac1 or Arf6 activation kits. These assays employ either a GST-fusion protein containing the p21-binding domain of p21-activated protein kinase 1 (PAK1) to selectively bind active Rac1 in whole cell lysates, or GST-GGA3 (Golgi-associated gamma adaptin ear-containing Arf binding protein 3) to pull down active Arf6. The active Rac1 or Arf6 collected on the glutathione beads were subjected to western blot analysis and the chemiluminescence signals were quantified using Alpha Innotech FluorChem HD2 imaging system. The values for active protein in each sample were normalized to α-tubulin. Results were expressed as either the total active Rac1 or Arf6, or the ratio of the active GTPase to the total Rac1 or Arf6 measured in aliquots of the cell lysate.

[11] = tested on: active Arf6; assay: Pull-down assay for activated Arf6; assay type: cell-based, human; settings: U251; 10 μM MIPP; 4 h or 24 h
Description: as §2

[12] = tested on: active Rab5; assay: Pull-down assay for active Rab5; assay type: cell-based, human; settings: U251; 10 μM; 4 h and 24 h
Description: (§3) GST-fusion proteins were produced in E. coli BL21 (DE3) pLysS and the fusion proteins were bound to glutathione-sepharose 4B beads. Pull-down assays for active Rab5 using the GST-Rabaptin-5 beads were performed. Assays for active Rab7 were performed. For each determination cell lysates were prepared from ten pooled 10 cm cultures. Monoclonal antibodies against Rab5 or Rab7 were used to probe western blots of the proteins collected on the beads. Results were quantified and normalized as described above for Rac1 and Arf6.

[13] = tested on: active Rab7; assay: Pull-down assay for active Rab7; assay type: cell-based, human; settings: U251; 10 μM; up to 24 h
Description: as §3

[14] = tested on: U251 glioblastoma cells; assay: ATP level (CellTiter Glo); assay type: cell-based, human; settings: second day after addition of MIPP (FIG. 13)
Description: To compare the levels of ATP in MIPP-treated glioblastoma cells versus controls treated with an equivalent volume of DMSO, the cells were harvested by trypsinization and assayed using the CellTiter Glo kit from Promega according to the manufacturer's instructions.

Q: Which IC50 ([1]; U251, two days, medium and compound replenished after the first day (FIG. 37D), read-out: IC50 (cell viability)) does the source give for Cc1[nH]c2ccccc2c1C=CC(=O)c1ccncc1 [MIPP, 3-(2-methyl-1H-indol-3-yl)-1-(4-pyridinyl)-2-propen-1-one] here?
A: Its IC50 is 4.8 µM.

Q: What about the IC50 ([1]; parental U251, MTT dose-response over a 2-day period (FIG. 20), read-out: IC50, parental cells) of the same compound?
A: Its IC50 is 3.5 µM.

Q: And the “relative cell viability, in words” value ([1]; U251, 10 μM, first two days of treatment (FIG. 12))?
A: Its value is “marked decrease in the relative cell viability”.

Q: What about the “methuosis and cell viability in TMZ-resistant cells, in words” value ([2]; FIGS. 41A-41B) of the same compound?
A: The value was “induced methuosis and reduced cell viability in the TMZ-resistant cells”.

Q: What about the IC50 ([2]; Homo sapiens, U-251, 48 h, U251-TR, MTT dose-response over a 2-day period (FIG. 20)) of the same compound?
A: Its IC50 is 6 µM.

Q: And the cytotoxicity at 10 μM [3]?
A: Its cytotoxicity at 10 μM is 50 to 90%.

Q: What about the cytotoxicity at 10 μM [4] of the same compound?
A: Its cytotoxicity at 10 μM is 30%.

Q: What about the cytotoxicity at 10 μM [5] of the same compound?
A: Its cytotoxicity at 10 μM is 40%.

Q: And the “cell morphology / vacuolization” value ([6]; 1 μM)?
A: Its value is “behaved similarly to Compound I when tested at 1 μM”.

Q: What about the “cell morphology / vacuolization” value ([6]; 10 μM) of the same compound?
A: The value was “induced vacuoles that were larger and more numerous than those induced by Compound I”.

Q: And the colony formation [7]?
A: Its colony formation is “non-viable in colony-forming assays; also recorded: reduced colony formation”.

Q: What about the “survival (colony formation)” value [8] of the same compound?
A: Its value is “significant decline in survival”.

Q: What about the “long-term cell survival (colony formation)” value [9] of the same compound?
A: Its value is “significantly reduced long-term cell survival in all cases”.

Q: What about the “amount of active Rac1” value [10] of the same compound?
A: The value was “no significant effects”.

Q: And the “amount of active Arf6” value [11]?
A: The value was “no significant effects”.

Q: And the “amount of active Rab5” value [12]?
A: Its value is “striking decline in the amount of active Rab5”.

Q: And the “amount / activation state of active Rab7” value [13]?
A: Its value is “more than doubling by 24 h”.

Q: What about the ATP level [14] of the same compound?
A: The ATP level was “significant decrease in ATP”.
